Laboratory results from patent US20100174075A1, “USE OF NITRIC OXIDE-RELEASING STATINS IN THE TREATMENT OF PULMONARY ARTERIAL HYPERTENSION” (NICOX S.A., priority 2007, published 2010).

Assays:
[1] = system: Human pulmonary artery smooth muscle cells (PASMCs); experiment: DNA synthesis by [3H-methyl]-thymidine incorporation in PDGF-stimulated PASMCs; type: cell-based; details: PDGF-BB 5 ng/ml, 24 hours
Experimental: DNA synthesis was measured by [^3H-methyl]-thymidine incorporation over 24 hours as previously described.
Human pulmonary artery smooth muscle cells (PASMCs) were seeded in 48-well plates at a density of 5×10^4 cells/well in Dulbecc's modified Eagle medium (DMEM) containing 10% fetal bovine […] (FBS). Cells were allowed to adhere overnight, providing a monolayer of approximately 80-90% confluence, and then quiesced for 48 hours with daily changes in serum-free DMEM. Cells were subsequently incubated in fresh medium containing 0.25 μCi/well [^3H-methyl]-thymidine (GE Healthcare, Little Chalfont, Buck's, UK) and treated with pravastatin and NO-releasing pravastatin (Example 1 of WO 2004/105754) at stated concentrations in the presence and absence of recombinant human platelet-derived growth factor-BB (PDGF) (5 ng/ml). Four to six replicates were analysed per treatment and [^3H-methyl]-thymidine uptake determined by liquid scintillation analysis (2200CA TRI-CARB, United Technologies Packcard, Pangbourne, UK).

[2] = system: Endothelin-1 (ET-1) release from PASMCs; experiment: TGF-β1-stimulated ET-1 release from PASMCs (chemiluminescent immunoassay); type: cell-based, human; details: 1 μM; TGF-β1 10 ng/ml; PASMCs conditioned medium
Experimental: Endothelin-1 (ET-1) release from PASMCs was measured in conditioned media using a chemiluminescent immunoassay system (QuantiGlo®, R&D Systems, UK). Cells were grown to confluence in 24-well plates (5×10^4 cells per well) in DMEM containing 10% FBS and serum-deprived for 24-hours prior to stimulation with transforming growth factor-[…] (TGF-β1) (10 ng/ml) and treatment with pravastatin and NO-releasing pravastatin (Example 1 of WO 2004/105754). Release experiments were also conducted in the presence of mevalonic acid (MVA), farnesylpyrophosphate (FPP), geranylgeranylpyrophosphate (GGPP) and inhibitors of geranylgeranyl transferase (GGTI-2133), farnesyl transferase (FTI-277) and Rho Kinase (Y27632). Production of MMP-9 was induced by dual stimulation with tumour necrosis factor-α (TNF-α) (10 ng/ml) and phorbol 12-[…] 13-acetate (PMA) (0.1 μM) and measured in conditioned medium using a Biotrack® ELISA-based immunoassay (GE Healthcare, UK). In the presence of TGF-β1 (10 ng/ml), ET-1 production by PASMCs increased markedly, compared with control serum-deprived cells.

With `CC[C@H](C)C(=O)O[C@H]1C[C@H](O)C=C2C=C[C@H](C)[C@H](CC[C@@H](O)C[C@@H](O)CC(=O)O)[C@H]21` [Pravastatin] the “[3H-Methyl]-thymidine incorporation (% of PDGF)” value ([1]; 1 μM) was 95.0 ± 3.6 % of PDGF, the “[3H-Methyl]-thymidine incorporation (% of PDGF)” value ([1]; 5 μM) was 92.5 ± 4.2 % of PDGF and the “[3H-Methyl]-thymidine incorporation (% of PDGF)” value ([1]; 10 μM) was 89.5 ± 2.4 % of PDGF. The “ET-1 (% of TGF-β1)” value [2] was 89.9 ± 12.8 % of TGF-β1.
